# According to PMC5863483, “Low HLA binding of diabetes-associated CD8+ T-cell epitopes is increased by post translational modifications” (BMC Immunology, 2018):
# pIC50: −log10 of the molar value. Where two headings read alike, the source gives them in different places. Where no end group is shown, it is not given here.
# Assays:
# [1] = biological target: HLA-A*02:01 (Homo sapiens, UniProt P04439, D140Y/D185E/D98H/E176V/E277Q/G131W/G231S/I119V/I121R/I166T/I218V/L300P/L318F/N151K/N90K/P208A/P217A/Q86G/Q94H/R138H/R169H/T345S); assay: HLA-peptide competition binding assay, A*02:01
# [2] = biological target: HLA-A*03:01 (Homo sapiens, UniProt P04439); assay: HLA-peptide competition binding assay, A*03:01; details: read-out: IC50 nM, target assay A*03:01
# [3] = biological target: HLA-B*35:01 (Homo sapiens, UniProt P01889, A329T/A93T/A95T/C349S/D201E/D98Y/E176V/E187L/E204Q/E69T/I218V/K202T/L119I/Q94N/R155S/R180L/S121R/S35A/S48A/T118I/V127L/V306I/V36M/Y140S/Y91F); assay: HLA-peptide competition binding assay, B*35:01; details: read-out: IC50 nM, target assay B*35:01
# [4] = biological target: HLA-B*07:02 (Homo sapiens, UniProt P01889); assay: HLA-peptide competition binding assay, B*07:02; details: read-out: IC50 nM, target assay B*07:02
# [5] = read-out: IC50 nM, target assay A*02:01
# [6] = unmodified (WT) insulin peptide, competition binding assay, a dash indicates IC50 >40,000 nM, read-out: A*02:01 binding (IC50 nM) WT
# [7] = post-translationally modified insulin peptide, competition binding assay, a dash indicates IC50 >40,000 nM, read-out: A*02:01 binding (IC50 nM) Modified
# [8] = read-out: A*02:01 binding (IC50 nM) WT
# [9] = read-out: A*02:01 binding (IC50 nM) Modified
Sequence,"IC50 [1, 5]",other results
SLQKRGIVEQ [reference compound],> 40000 nM,–
SLQPLALEG [reference compound],> 40000 nM,IC50 [2]: > 40000 nM
SLSPLQAEL [reference compound],101 nM,–
SLTAISTTL [reference compound],242 nM,–
SLTTISTTL [reference compound],–,pIC50 [1]: 6.63
SLYHVYEVNL [reference compound],209 nM,–
SLYQLENYC [reference compound],16900 nM,–
SMCRFSPLTL [reference compound],1150 nM,–
SMPQGTFPV [reference compound],631 nM,–
STVASRLGPV [reference compound],25100 nM,–
STVASWLGPV [reference compound],9230 nM,–
SVASLLPHV [reference compound],1760 nM,–
TIADFWQMV [reference compound],4690 nM,–
TMHSLTIQM [reference compound],104 nM,–
TPKTRREAE,–,"IC50 [1, 6]: > 40000 nM"
TPKTRREAED [TPKTRREAED],–,"IC50 [1, 6]: > 40000 nM"
TRREAEDLQ,–,"IC50 [1, 6]: > 40000 nM"
TRREAEDLQV,–,"IC50 [1, 6]: > 40000 nM"
TSEHSHFSL,–,IC50 [3]: > 40000 nM
TVASRLGPV [reference compound],7700 nM,–
VAANIVLTV [reference compound],–,pIC50 [1]: 6.49
VCGERGFFY,–,"IC50 [1, 6]: > 40000 nM"
VCGERGYFY,–,"IC50 [1, 7]: > 40000 nM"
VCGERGYFYT,–,"IC50 [1, 7]: > 40000 nM"
VDEHLCGSH,–,"IC50 [1, 7]: > 40000 nM"
VDEHLCGSHL,–,"IC50 [1, 7]: > 40000 nM"

Sequence,"IC50 [1, 5]",other results
VEALYLVCG,–,"IC50 [1, 8]: 14300 nM"
VEALYLVCGE,–,"IC50 [1, 8]: 8870 nM"
VIVMLTPLV [reference compound],2120 nM,–
VLFGLGFAI [reference compound],149 nM,–
VLHELFGMDI [reference compound],287 nM,–
VLNSLASLL [reference compound],4970 nM,–
VLNSVASLL [reference compound],1140 nM,–
VLVEGSTRI [reference compound],17200 nM,–
VMNILLQYV [reference compound],2020 nM,–
VMNILLQYVV [reference compound],2310 nM,–
VNQHLCGSH,–,"IC50 [1, 6]: > 40000 nM"
VNQHLCGSHL,–,"IC50 [1, 8]: 6640 nM"
VVTGVLVYL [reference compound],9 nM,–
WGPDPAAA [reference compound],> 40000 nM,–
"WLLPLWAAL [WLLPLWAAL, reference compound]",4.2 nM,–
WLLPLWAALPL [reference compound],3.2 nM,–
WMRLLPLLA,–,pIC50 [1]: 5.82
"WMRLLPLLAL [WMRLLPLLAL, reference compound]",–,pIC50 [1]: 6.18; IC50 [4]: 2360 nM
YIPSCTVVGM [reference compound],9510 nM,–
YLLLRVLNI [reference compound],57 nM,–
YLVCGERGF,–,"pIC50 ([1]; unmodified (wild type) insulin-derived peptide, radiolabeled ligand competition, purified MHC, two-day incubation, three or more independent experiments, read-out: A*02:01 binding, WT): 5.17"
YLVCGERGFF,–,"IC50 [1, 8]: 1400 nM"
YLVCGERGY,–,"IC50 [1, 9]: 10800 nM"
YLVCGERGYF,–,"IC50 [1, 9]: 2010 nM"
YTPKTRREA,–,"IC50 [1, 6]: > 40000 nM"
YTPKTRREAE,–,"IC50 [1, 6]: > 40000 nM"
